Assay results: publication PMC11881016, “Deep‐Learning‐Based Approaches for Rational Design of Stapled Peptides With High Antimicrobial Activity and Stability” (Microbial Biotechnology, 2025)
Where a SMILES comes first, the peptide text is derived from it. Bridges are numbered along the chain shown (N, C = ends). Where no end group is shown, it is not given here.

Key:
[1] = system: gram‐positive and gram‐negative bacteria; settings: external independent data set; ref Hu et al. ([2022]); cited from earlier work
From the text: TABLE 3 Prediction results of external independent data set using 10 models. | column: Result ^a

[2] = system: Escherichia coli (E. coli, ATCC25922); type: cell-based
Protocol: (§1) Escherichia coli ( E. coli , ATCC25922), Klebsiella pneumoniae ( K. pneumoniae , ATCC10031), Staphylococcus aureus ( S. aureus , ATCC6538P), Pseudomonas aeruginosa ( P. aeruginosa , ATCC27853) and methicillin‐resistant Staphylococcus aureus (MRSA) were used to evaluate the antimicrobial activity of the peptides and were purchased from BeNa Culture Collection.
(§2) The MICs of the peptides in vitro were determined using the broth microdilution method with minor modifications (Wiegand et al. [2008]). Peptides were incubated with bacteria (about 5 × 10^5 CFU/mL), and PBS was used as the negative control. After 18–24 h of incubation at 37°C, the bacteria were checked for growth by recording the values at OD600, with three replicates in each group.

[3] = system: Klebsiella pneumoniae (K. pneumoniae, ATCC10031); type: cell-based; settings: ATCC10031
Protocol: as §1, §2

[4] = system: Pseudomonas aeruginosa (P. aeruginosa, ATCC27853); type: cell-based
Protocol: as §1, §2

[5] = system: Staphylococcus aureus (S. aureus, ATCC6538P); type: cell-based; settings: ATCC6538
Protocol: as §1, §2

[6] = system: methicillin‐resistant Staphylococcus aureus (MRSA); type: cell-based; settings: methicillin‐resistant
Protocol: as §1, §2

Row | Compound | MIC E. coli [2] [µg/mL] | MIC K. pneumoniae [3] [µg/mL] | MIC P. aeruginosa [4] [µg/mL] | MIC S. aureus [5] [µg/mL] | MIC MRSA [6] [µg/mL] | Result (stapled AMP with high antimicrobial activity in the experiment) [1]
1 | GFⓀDLLⓀGAAKALVKTVLF‐NH2 (sidechain bridge or staple) [LS‐AP3, lysine‐stapled AMP of the external independent data set from Hu et al. ([2022])] |  |  |  |  |  | Positive
2 | FFGSVLⓀLIPⓀIL‐NH2 (sidechain bridge or staple) [LS‐PTa, lysine‐stapled AMP of the external independent data set from Hu et al. ([2022])] |  |  |  |  |  | Positive
3 | PⓀINLⓀILGKILRLAAAFK‐NH2 (sidechain bridge or staple) [LS‐PaD2, lysine‐stapled AMP of the external independent data set from Hu et al. ([2022])] |  |  |  |  |  | Positive
4 | VⓀRFKⓀFFRKFKKFV‐NH2 (sidechain bridge or staple) [LS‐BF2, lysine‐stapled AMP of the external independent data set from Hu et al. ([2022])] |  |  |  |  |  | Positive
5 | GFKDLLKGAAⓀALVⓀTVLF‐NH2 (sidechain bridge or staple) [LS‐AP1, lysine‐stapled AMP of the external independent data set from Hu et al. ([2022])] |  |  |  |  |  | Positive

More lines, main results first:

Row | MIC E. coli [2] [µg/mL] | MIC K. pneumoniae [3] [µg/mL] | MIC P. aeruginosa [4] [µg/mL] | MIC S. aureus [5] [µg/mL] | MIC MRSA [6] [µg/mL] | Compound | Result (stapled AMP with high antimicrobial activity in the experiment) [1]
6 | 16 | 1 | 4 | 2 | 8 | WKRIARKLKRKLGRAKLF [VAE‐P3‐5] | 
7 | 8 | 4 | 16 | 8 | 128 | RILRKLRKKFLK [GAN‐P2‐2] | 
8 | 64 | 32 | 64 | 16 |  | CC[C@H](C)[C@H](NC(=O)CN)C(=O)NCC(=O)N[C@@H](CCCCN)C(=O)N[C@@H](Cc1ccccc1)C(=O)N[C@@H](CC(C)C)C(=O)N[C@@H](Cc1c[nH]cn1)C(=O)N[C@@H](CO)C(=O)N[C@@H](C)C(=O)N[C@@H](CCCCN)C(=O)N[C@@H](CCCCN)C(=O)N[C@@H](Cc1ccccc1)C(=O)NCC(=O)N[C@@H](CCCCN)C(=O)N[C@H]1CSSC[C@@H](C(=O)N[C@H](C(=O)N[C@@H](CC(C)C)C(=O)N[C@@H](CC(N)=O)C(=O)N[C@@H](CO)C(=O)O)[C@@H](C)CC)NC(=O)CNC(=O)[C@H](C(C)C)NC(=O)[C@H](Cc2ccccc2)NC1=O [Mag2(i + 4)14Dc] (H-GIGKFLHSAKKFGKCFVGCILNS-OH; disulfide 15-19) | 
9 | 16 | 4 | 32 | 8 | 128 | RILRKLKKRFLK [GAN‐P2‐3] | 
10 | 512 | 256 | > 512 | > 512 |  | CC[C@H](C)[C@H](NC(=O)CN)C(=O)NCC(=O)N[C@@H](CCCCN)C(=O)N[C@@H](Cc1ccccc1)C(=O)N[C@@H](CC(C)C)C(=O)N[C@@H](Cc1c[nH]cn1)C(=O)N[C@@H](CO)C(=O)N[C@@H](C)C(=O)N[C@@H](CCCCN)C(=O)N[C@@H](CCCCN)C(=O)N[C@@H](Cc1ccccc1)C(=O)NCC(=O)N[C@@H](CCCCN)C(=O)N[C@@H](C)C(=O)N[C@H]1CSSC[C@@H](C(=O)N[C@@H](CC(C)C)C(=O)N[C@@H](CC(N)=O)C(=O)N[C@@H](CO)C(=O)O)NC(=O)[C@H](CCC(=O)O)NC(=O)CNC(=O)[C@H](C(C)C)NC1=O [Mag2(i + 4)15Dc] (H-GIGKFLHSAKKFGKACVGECLNS-OH; disulfide 16-20) | 
11 | 8 | 4 | 32 | 8 | 64 | RILRKLRKRFLK [GAN‐P2‐4] | 
12 | 16 | 2 | 16 | 4 | 16 | WKRIAKRLKKKLGRAKLF [VAE‐P3‐3] | 
